Source: patent publication US20120064072A1, “Combination Cancer Therapy Comprising Administration of an EGFR Inhibitor and an IGF-1R Inhibitor” (priority 2009, published 2012)

Key:
[1] = test system: H292 (NSCLC) human tumor xenograft; experiment: Treatment beyond progression (TBP), H292 xenograft model; format: in vivo, mice
Procedure: Anti-tumor efficacy was evaluated using mouse xenograft tumor models derived from GEO and H292 cells. Female athymic nude nu/nu CD-1 mice (6-8 wks, 22-29 g) were obtained from Charles River Laboratories (Wilmington, Mass.). Animals were allowed to acclimate for a minimum of one week prior to initiation of a study. Throughout the studies, animals were allowed sterile rodent chow and water ad libitum, and immunocompromised animals were maintained under specific pathogen free conditions. […] Tumor cells were harvested from cell culture flasks during exponential cell growth, washed twice with sterile PBS, counted and resuspended in PBS to a suitable concentration before s.c. implantation on the right flank of female nu/nu CD-1 mice. Tumors were established to 200+/−50 mm^3 in size before randomization into treatment groups of 8 mice each. Body weights were determined twice weekly along with tumor volume {V=[length×(width)^2]/2} measurements using Vernier calipers during the study. Tumor growth inhibition (% TGI) was determined by the following formula: % TGI={1−[(Tt/T0)/(Ct/C0)]/1-[C0/Ct]}×100. Tt is tumor volume of treated at time t; T0 is tumor volume of treated at time 0; Ct is tumor volume of control at time t; and C0 is tumor volume of control at time 0. […] Furthermore, we evaluated the effect of drug treatment on tumor growth delay (GD or T-C value), defined as the difference in time (days) required for the treated tumors (T) to reach 400% of the initial tumor volume compared with those of the control group (C). […] At the time of tumor progression on single agent erlotinib treatment mice were randomized into additional study groups of 8 mice each. Individual tumor volumes were calculated, as stated above, for all mice throughout the study and the time in days until each mouse doubled its tumor volume from the time of re-randomization was determined by linear regression analysis of the entire data set. Statistical evaluation of the data was determined by Kaplan-Meier Survival analysis.
In two separate experiments (FIGS. 9-11 and FIGS. 13-15), NCI-H292 cells were harvested from cell culture flasks during exponential cell growth, washed twice with sterile PBS, counted and resuspended in PBS to a suitable concentration before s.c. implantation on the right flank of female nu/nu CD-1 mice. Tumors were established to 200+/−50 mm^3 in size before randomization into vehicle control or erlotinib treatment groups.

[2] = test system: GEO (CRC) human tumor xenograft; experiment: Treatment beyond progression (TBP), GEO xenograft model; format: in vivo, mice; conditions: after progression on 18 days erlotinib, erlotinib maintenance 100 mg/kg per day, or with OSI-906 15 mg/kg per day added, FIG. 4
Procedure: The H292 (NSCLC) and GEO (CRC) human tumor xenograft models were used to evaluate the efficacy of EGFR inhibitor (erlotinib) maintenance therapy with and without the addition of IGF-1R inhibitor (OSI-906) therapy following response and subsequent progression on erlotinib monotherapy.
Anti-tumor efficacy was evaluated using mouse xenograft tumor models derived from GEO and H292 cells. Female athymic nude nu/nu CD-1 mice (6-8 wks, 22-29 g) were obtained from Charles River Laboratories (Wilmington, Mass.). Animals were allowed to acclimate for a minimum of one week prior to initiation of a study. […] Tumor cells were harvested from cell culture flasks during exponential cell growth, washed twice with sterile PBS, counted and resuspended in PBS to a suitable concentration before s.c. implantation on the right flank of female nu/nu CD-1 mice. […] Body weights were determined twice weekly along with tumor volume {V=[length×(width)^2]/2} measurements using Vernier calipers during the study. Tumor growth inhibition (% TGI) was determined by the following formula: % TGI={1−[(Tt/T0)/(Ct/C0)]/1-[C0/Ct]}×100. […] Furthermore, we evaluated the effect of drug treatment on tumor growth delay (GD or T-C value), defined as the difference in time (days) required for the treated tumors (T) to reach 400% of the initial tumor volume compared with those of the control group (C). […]

[3] = test system: H292 (NSCLC) human tumor xenograft; experiment: Frontline combination treatment, H292 xenograft model; format: in vivo, mice; conditions: by 100 days
Procedure: Anti-tumor efficacy was evaluated using mouse xenograft tumor models derived from GEO and H292 cells. Female athymic nude nu/nu CD-1 mice (6-8 wks, 22-29 g) were obtained from Charles River Laboratories (Wilmington, Mass.). Animals were allowed to acclimate for a minimum of one week prior to initiation of a study. Throughout the studies, animals were allowed sterile rodent chow and water ad libitum, and immunocompromised animals were maintained under specific pathogen free conditions. […] Tumor cells were harvested from cell culture flasks during exponential cell growth, washed twice with sterile PBS, counted and resuspended in PBS to a suitable concentration before s.c. implantation on the right flank of female nu/nu CD-1 mice. […] Body weights were determined twice weekly along with tumor volume {V=[length×(width)^2]/2} measurements using Vernier calipers during the study. Tumor growth inhibition (% TGI) was determined by the following formula: % TGI={1−[(Tt/T0)/(Ct/C0)]/1-[C0/Ct]}×100. […] Furthermore, we evaluated the effect of drug treatment on tumor growth delay (GD or T-C value), defined as the difference in time (days) required for the treated tumors (T) to reach 400% of the initial tumor volume compared with those of the control group (C). […] Statistical evaluation of the data was determined by Kaplan-Meier Survival analysis.

pIGF-1R [4] = experiment: RTK array analysis, GEO model; format: in vivo, human; conditions: erlotinib 100 mg/kg per day for eighteen days, all treated tumors, FIG. 1
Procedure: (§1) In untreated GEO tumors and tumors treated with erlotinib (100 mg/kg per day) for eighteen days, the levels of pEGFR, pIGF-1R, and pIR were measured in terms of median pixel density, as shown in FIG. 1.

pIR [5] = experiment: RTK array analysis, GEO model; format: in vivo, human; conditions: erlotinib 100 mg/kg per day for eighteen days, all treated tumors, FIG. 1
Procedure: as §1

pIGF-1R [6] = experiment: RTK array analysis, H292 model; format: in vivo, human; conditions: H292 tumors, erlotinib 100 mg/kg per day eighteen days, progressor tumors vs untreated or non-progressor; FIG. 5
Procedure: (§2) In untreated H292 tumors and tumors treated with erlotinib (100 mg/kg per day) for eighteen days, the levels of pIGF-1R and pIR were measured in terms of pixel density normalized to phosphotyrosine loading control, as shown in FIG. 5. Tumors that initially responded and then progressed (progressor) show upregulation of both pIGF-1R and pIR as compared to untreated tumors or tumors that continue to respond to erlotinib treatment (non-progressor).

pIR [7] = experiment: RTK array analysis, H292 model; format: in vivo, human; conditions: H292 tumors, erlotinib 100 mg/kg per day eighteen days, progressor tumors vs untreated or non-progressor; FIG. 5
Procedure: as §2

Akt [8] = experiment: GEO model Western blot analysis; format: in vivo, human; conditions: erlotinib 100 mg/kg per day eighteen days, FIG. 2
Procedure: (§3) In untreated GEO tumors and tumors treated with erlotinib (100 mg/kg per day) for eighteen days, the levels of total and phosphorylated Akt and Erk were measured and quantitated in terms of the ratio of phosphor to total protein in each sample and then plotted as compared to levels observed in vehicle control treated tumors (assumed to be 100%).

Erk [9] = experiment: GEO model Western blot analysis; format: in vivo, human; conditions: erlotinib 100 mg/kg per day eighteen days, FIG. 2
Procedure: as §3

Akt [10] = experiment: H292 model Western blot analysis; format: in vivo, human; conditions: H292, erlotinib 100 mg/kg per day eighteen days, FIG. 6
Procedure: as §3, with “H292” for “GEO”

Erk [11] = experiment: H292 model Western blot analysis; format: in vivo, human; conditions: H292, erlotinib 100 mg/kg per day eighteen days, FIG. 6
Procedure: as §3, with “H292” for “GEO”

[12] = OSI-906 50 mg/kg per day after taking off erlotinib
[13] = tumors that do not progress on treatment
[14] = tumors that respond and then progress on treatment

Structure (SMILES) | time to tumor doubling, switching to OSI-906 single agent versus maintaining erlotinib single agent [1, 12] | time to two tumor doublings, switching to OSI-906 single agent versus maintaining erlotinib single agent [1, 12] | median time to tumor doubling following the re-sorting [2] | median time to one doubling ([1]; first trial, FIG. 10, Kaplan-Meier, after 28 days erlotinib 100 mg/kg per day, combination = erlotinib + OSI-906 15 or 10 mg/kg) | median time to two doublings ([1]; first trial, FIG. 11, Kaplan-Meier, combination = erlotinib + OSI-906 15 or 10 mg/kg) | median time to one doubling ([1]; second trial, FIG. 14, Kaplan-Meier) | median time to two doublings ([1]; second trial, FIG. 15, Kaplan-Meier) | mice that doubled their tumor volumes twice [3] | level of pIGF-1R (median pixel density) compared to untreated tumors (pIGF-1R [4]) | level of pIR (median pixel density) compared to untreated tumors (pIR [5]) | level of pIGF-1R (pixel density normalized to phosphotyrosine loading control) (pIGF-1R [6]) | level of pIR (pixel density normalized to phosphotyrosine loading control) (pIR [7]) | phospho to total Akt versus vehicle control (Akt [8]; [13]) | phospho to total Akt versus vehicle control (Akt [8]; [14]) | phospho to total Erk versus vehicle control (Erk [9]; [13]) | phospho to total Erk versus vehicle control (Erk [9]; [14]) | phospho to total Akt versus vehicle control (Akt [10]; [13]) | phospho to total Akt versus vehicle control (Akt [10]; [14]) | phospho to total Erk versus vehicle control (Erk [11]; [13]) | phospho to total Erk versus vehicle control (Erk [11]; [14])
C[C@]1(O)C[C@@H](c2nc(-c3ccc4ccc(-c5ccccc5)nc4c3)c3c(N)nccn32)C1 [OSI-906, cis-3-[8-amino-1-(2-phenyl-quinolin-7-yl)-imidazo[1,5-a]pyrazin-3-yl]-1-methyl-cyclobutanol] | no statistical difference | no statistical difference | – | – | – | – | – | – | – | – | – | – | – | – | – | – | – | – | – | –
C#Cc1cccc(Nc2ncnc3cc(OCCOC)c(OCCOC)cc23)c1 [erlotinib, [6,7-bis(2-methoxyethoxy)-4-quinazolin-4-yl]-(3-ethynylphenyl)amine] | – | – | about 28 days | 20.9 days | 41.5 days | 20.9 days | 45.8 days | 7 of 8 | upregulation | upregulation | upregulation | upregulation | continued inhibition | no longer inhibiting | continued inhibition | no longer inhibiting | continued inhibition | no longer inhibiting | continued inhibition | no longer inhibiting
